From ChEMBL document CHEMBL1128598, “Potential anxiolytic agents. Pyrido[1,2-a]benzimidazoles: a new structural class of ligands for the benzodiazepine binding site on GABA-A receptors” (J Med Chem, 1995) come the findings set out here.

Structures are written as SMILES.

Assay [1] deals with GABA-A receptor; anion channel. The assay is described as follows: Binding affinity against benzodiazepine site of gamma-aminobutyric-acid A receptor of rat cerebral cortex by using [3H]flunitrazepam in the presence of GABA 1 mM. The class given is tissue-based.
Assay [2] concerns Rattus norvegicus. The assay is described as follows: Minimum effective dose as dose required to release behavior in suppressed rats by conflict test after intraperitoneal administration. The class given is functional. The settings on record: ip, read-out: MED.
Assay [3] deals with Mus musculus. Nature of the assay: The ability to block the tonic-clonic component of seizures induced by metrazole in mice after intraperitoneal administration. The class given is functional. The settings on record: ip.
Assay [4] has as its target GABA-A receptor; anion channel (Rattus norvegicus) (UniProt O09028+P15431+P18506+P18508+P19969+P20236+P23574+P23576+P28471+P28473+P30191+P62813+P63079+P63138+Q91ZM7+Q9ES14). The assay is described as follows: GABA shift as the ratio of IC50 (no GABA) to that of IC50 (GABA); GABA shift. The class given is protein-complex assay.
Assay [5] concerns the target GABA-A receptor; anion channel. Nature of the assay: Binding affinity against benzodiazepine site of gamma-aminobutyric-acid A receptor of rat cerebral cortex by using [3H]flunitrazepam in the absence of GABA. The class given is tissue-based.

Consider `O=C1CCn2c(nc3ccccc32)/C1=C(\O)Oc1ccccc1`, for which the IC50 in assay [1] came to 150 nM; in assay [5] it was 200 nM. In assay [2], the minimal effective dose is over 10 mg/kg. In assay [3], this compound registered an ED50 of 9.9 mg/kg. In addition, the GS in assay [4] is 1.4.
For the compound `O=C(Nc1c(Cl)cccc1Cl)C1=C(O)CCn2c1nc1ccccc12`, the IC50 in assay [1] was 170 nM; in assay [5] it was 320 nM. In assay [2], the minimal effective dose was over 10 mg/kg. For the same compound, the ED50 in assay [3] is over 30 mg/kg. Moreover, the GS in assay [4] turned out to be 1.9.
For `O=C(Nc1ccccc1F)c1c(O)ccn2c1nc1ccccc12` the same measures were 0.11 nM, 0.23 nM, 0.1 mg/kg, 0.088 mg/kg and 2.1.
In the case of `CN1C(=O)CN=C(c2ccccc2)c2cc(Cl)ccc21` [DIAZEPAM], in assay [2], the minimal effective dose was found to be 5 mg/kg. Also, in assay [3], the median effective dose (ED50) was determined as 0.11 mg/kg. Moreover, the GS in assay [4] turned out to be 2.2.
For the compound `O=C(Nc1cccc(Cl)c1)C1=C(O)CCn2c1nc1ccccc12`, the IC50 worked out at 95 nM in assay [1] and 120 nM in assay [5]. For the same compound, the minimal effective dose in assay [2] was over 10 mg/kg. Also, the ED50 in assay [3] was over 30 mg/kg. Besides, the GS in assay [4] is 1.3.
As to `CCN1C2=C(C(=O)Nc3ccccc3)C(=O)CCN2c2ccccc21`, the IC50 stood at 1.4 nM in assay [1] and 2.1 nM in assay [5]. In assay [2], the minimal effective dose was found to be 0.3 mg/kg. In assay [3], the ED50 is 0.083 mg/kg. Moreover, the GS in assay [4] came to 1.6.
For `O=C(Nc1ccccc1)c1c(O)ccn2c1nc1ccccc12` the same measures were 14 nM, 24 nM, 10 mg/kg, 0.39 mg/kg and 1.7.
As for `O=C1CCN2C(=C1C(=O)Nc1ccccc1)Nc1ccccc12`, the IC50 in assay [1] turned out to be 5.9 nM; in assay [5], 9.1 nM. Moreover, in assay [2], the minimal effective dose amounted to 10 mg/kg. In assay [3], this compound had an ED50 of 5.2 mg/kg. Moreover, the GS in assay [4] was 1.5.
Take `O=C(Nc1ccccc1Cl)C1=C(O)CCn2c1nc1ccccc12`: the IC50 came out at 5.3 nM in assay [1] and 12 nM in assay [5]. Moreover, the minimal effective dose in assay [2] was determined as 10 mg/kg. Moreover, in assay [3], the ED50 is 0.95 mg/kg. In assay [4], the GS came out at 2.3.
For `OC1=C(/C(S)=N/c2ccccc2)c2nc3ccccc3n2CC1` the same measures were 320 nM, 360 nM, over 10 mg/kg, over 10 mg/kg and 1.1.
For `O=C(Nc1ccccc1F)C1=C(O)CCn2c1nc1ccccc12`, the IC50 in assay [1] came out at 1.4 nM; in assay [5], 1.7 nM. Further, the minimal effective dose in assay [2] was 1 mg/kg. In assay [3], this compound registered an ED50 of 0.16 mg/kg. For the same compound, the GS in assay [4] was determined as 1.2.
On to `O=C(Nc1c(F)cccc1F)C1=C(O)CCn2c1nc1ccccc12`, for which the IC50 in assay [1] was found to be 1.7 nM; in assay [5], 2.8 nM. The minimal effective dose in assay [2] came out at 0.1 mg/kg. Moreover, it took a dose of 0.85 mg/kg to reach the 50% effect level in assay [3] (ED50). Also, the GS in assay [4] was determined as 1.6.
For `O=C1CCn2c(nc3ccccc32)/C1=C(\O)Sc1ccccc1` the same measures were 26 nM, 29 nM, over 10 mg/kg, over 30 mg/kg and 1.1.
For `COc1cccc(NC(=O)C2=C(O)CCn3c2nc2ccccc23)c1`, in that order: 16 nM, 26 nM, 5 mg/kg, over 10 mg/kg and 1.6.
As for `CN1C2=C(C(=O)Nc3ccccc3F)C(=O)CCN2c2ccccc21`, the IC50 in assay [1] came to 0.26 nM; in assay [5], 0.42 nM. The minimal effective dose in assay [2] worked out at 0.03 mg/kg. For the same compound, in assay [3], the ED50 was 0.019 mg/kg. Moreover, the GS in assay [4] amounted to 1.6.
With `NC(=O)C1=C(O)CCn2c1nc1ccccc12`, the IC50 was 6000 nM in assay [1] and 2400 nM in assay [5]. Besides, the minimal effective dose in assay [2] was 10 mg/kg. Further, the ED50 in assay [3] was over 30 mg/kg. The GS in assay [4] amounted to 0.4.
For `O=C1CCN2C(=C1C(=O)Nc1ccccc1)N(Cc1ccccc1)c1ccccc12` the same measures were 2.7 nM, 12 nM, 10 mg/kg, 1.4 mg/kg and 4.6.
For `O=C(NC1CCC1)C1=C(O)CCn2c1nc1ccccc12`, in that order: 25 nM, 30 nM, 10 mg/kg, over 30 mg/kg and 1.2.
Turning to `CN(C(=O)C1=C(O)CCn2c1nc1ccccc12)c1ccccc1`, the IC50 in assay [1] and in assay [5] was over 10000 nM in each case. In addition, the minimal effective dose in assay [2] is over 10 mg/kg. The same compound displayed an ED50 in assay [3] of over 10 mg/kg.
For the compound `CN1C2=C(C(=O)Nc3ccccc3)C(=O)CCN2c2ccccc21`, the IC50 in assay [1] amounted to 2.1 nM; in assay [5] it was 5.8 nM. In addition, the minimal effective dose in assay [2] is 1 mg/kg. The same compound yielded an ED50 in assay [3] of 0.13 mg/kg. The GS in assay [4] was 2.8.
As for `O=C(Nc1ccc(Cl)cc1)C1=C(O)CCn2c1nc1ccccc12`, the results for the IC50 in assay [1] and in assay [5] were 265 nM and 620 nM, respectively. Also, the minimal effective dose in assay [2] came to 1 mg/kg. In assay [3], it took a dose of 8.9 mg/kg to reach the 50% effect level (ED50). Besides, the GS in assay [4] came out at 2.3.
For `O=C(NC1CC1)C1=C(O)CCn2c1nc1ccccc12` the same measures were 18 nM, 16 nM, over 10 mg/kg, over 10 mg/kg and 0.87.
For `COc1ccccc1NC(=O)C1=C(O)CCn2c1nc1ccccc12`, in that order: 940 nM, 990 nM, over 10 mg/kg, over 10 mg/kg and 1.1.
Turning to `O=C(NC1CCCCC1)C1=C(O)CCn2c1nc1ccccc12`, the values for the IC50 in assay [1] and in assay [5] were 72 nM and 140 nM, respectively. For the same compound, in assay [2], the minimal effective dose was determined as 10 mg/kg. Further, the ED50 in assay [3] was found to be 3 mg/kg. In addition, the GS in assay [4] is 2.
Turning to `CCO/C(O)=C1\C(=O)CCn2c1nc1ccccc12`, the IC50 in assay [1] was determined as 840 nM; in assay [5], 675 nM. The compound further returned an ED50 in assay [3] of over 10 mg/kg. For the same compound, in assay [4], the GS came out at 0.68.
Turning to `COc1ccc(NC(=O)C2=C(O)CCn3c2nc2ccccc23)cc1`, the figures for the IC50 in assay [1] and in assay [5] were 16 nM and 41 nM, respectively. For the same compound, the minimal effective dose in assay [2] was found to be 10 mg/kg. The 50% effect level in assay [3] (ED50) was put at a dose of 2 mg/kg. The GS in assay [4] turned out to be 2.6.

As a reminder, the IC50 is the midpoint of a concentration-inhibition curve. For orientation: ED50 means the dose at which the effect has come halfway, by size or by number of responders. Read a low ED50 as greater potency.
